The experiment concerns the target T1, human ferroportin (Homo sapiens, UniProt Q9NP59).
T1 construct: expressed in transfected cells
T1 sequence (Q9NP59 1-571): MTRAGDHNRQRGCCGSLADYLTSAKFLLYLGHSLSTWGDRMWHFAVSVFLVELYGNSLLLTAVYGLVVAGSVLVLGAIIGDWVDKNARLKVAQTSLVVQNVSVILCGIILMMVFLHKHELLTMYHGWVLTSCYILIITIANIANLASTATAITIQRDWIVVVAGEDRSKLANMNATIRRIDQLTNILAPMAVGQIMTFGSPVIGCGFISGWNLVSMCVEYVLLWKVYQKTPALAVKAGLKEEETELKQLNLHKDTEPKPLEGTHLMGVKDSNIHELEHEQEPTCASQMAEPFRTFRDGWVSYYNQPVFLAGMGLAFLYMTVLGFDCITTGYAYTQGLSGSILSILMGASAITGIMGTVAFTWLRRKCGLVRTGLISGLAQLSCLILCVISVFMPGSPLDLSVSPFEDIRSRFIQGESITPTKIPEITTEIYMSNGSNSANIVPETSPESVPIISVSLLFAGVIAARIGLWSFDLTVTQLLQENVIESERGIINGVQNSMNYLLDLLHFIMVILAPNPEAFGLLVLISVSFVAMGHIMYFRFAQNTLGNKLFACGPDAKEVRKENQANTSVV
The experiment can be described thus: ferroportin internalization assay (inhibition of hepcidin-induced internalization of Fpn). It is filed as cell-based. Particulars: MDCK-FPN-HaloTag cells, 100 nM hepcidin, overnight incubation; concentration range from 0.04 to 40 μM. Here is the method: The hepcidin-antagonistic action of the sulfonaminoquinoline compounds of the present invention was determined by means of the “ferroportin internalization assay” described in the following.
Organic compounds of low molecular weight which counteract the biological actions of hepcidin on its receptor, the iron exporter ferroportin (Fpn), were identified on the basis of their ability to inhibit hepcidin-induced internalization of Fpn in living cells. For this purpose, a stable cell line (Madin-Darby canine kidney, MDCK) was produced which constitutively expresses human ferroportin fused recombinantly at its C terminus with a fluorescent reporter protein (HaloTag®, Promega Corp.). The internalization of Fpn was monitored by labelling these cells with fluorescent ligands (HaloTag®-TMR, tetramethylrhodamine) which join covalently on to the HaloTag reporter gene fused with the Fpn. […] Optimized image analysis algorithms were used to ascertain the cell surface and to quantify the corresponding membrane fluorescence associated with the Fpn-HaloTag fusion protein. This assay allows a quantitative image-based analysis in order to quickly evaluate compounds which can block hepcidin-induced internalization of Fpn. This assay is a direct in vitro pendant of the in vivo action mechanism proposed for medicament candidates and is therefore suitable as an initial assay with a high throughput for identifying compounds which counteract the action of hepcidin on its receptor ferroportin.
• 7,500 cells per well (MDCK-FPN-HaloTag) were transinoculated in 50 μl of DMEM medium (Dulbeccos Modified Eagle Medium with 10% foetal bovine serum (FBS), which contained 1% penicillin, 1% streptomycin and 450 μg/ml of G-418) in microtitre plates with 384 wells (384 Cell carrier plates, Perkin Elmer, cat. no. 6007430), followed by incubation overnight at 37° C./5% CO2. • The volume of the medium was reduced to 10 μl, and 10 μl of 5 μM HaloTag-TMR ligands (Promega, cat. no. G 8251) were added in DMEM medium in order to stain the Fpn-HaloTag fusion protein. • 15 min incubation at 37° C./5% CO2 • The HaloTag-TMR ligand was removed and the cells were washed with fresh DMEM medium and the volume was reduced to 20 μl of DMEM medium. • 3 μl per well of a solution of the test compound (dissolved DMSO) were added ([…]). • 7 μl of […] hepcidin (Peptides International, cat. no. PLP-4392-s, 100 μM stock solution diluted in water in DMEM medium) were added per well up to a final hepcidin concentration of 100 nM. • The cells were incubated overnight at 37° C./5% CO2. • The cells were fixed by adding paraformaldehyde (PFA, Electron Microscopy Sciences, cat. no. 15710-S) directly to the cells up to a final concentration of 4%, followed by incubation at room temperature for 15-20 minutes. • The PFA solution was removed and the cells were washed with PBS (phosphate-buffered saline solution), in each case 30 μl remaining in the plate. • 20 μl of Draq5 (Biostatus, cat. no. DR 51000) were added up to a final concentration of 2.5 μM in order to stain the cell nuclei, and the plates were sealed with a foil plate seal. • The plates were analysed with the Opera Plate Imager (Opera Confocal Plate Imager, Perkin Elmer) with 7 images per well; 440 ms exposure time per image, […] focal point height.
In general, IC50 refers to the concentration that gives 50% inhibition. Turning to `COc1ccnc2c3c(ccc12)-c1cc(C(F)(F)F)ccc1S(=O)(=O)N3` [Example 109, 1-Methoxy-9-trifluoromethyl-5H-6-thia-4,5-diaza-chrysene 6,6-dioxide], the IC50 amounted to 0.979 µM.
In the case of `O=S1(=O)Nc2c(ccc3cccnc23)CN1c1ccccc1` [Example 113, 2-Phenyl-1,4-dihydro-2H-3-thia-2,4,5-triaza-phenanthrene 3,3-dioxide] it was 0.46 µM; in that of `O=S1(=O)NCc2ccc3cccnc3c2N1` [Example 114, 1,4-Dihydro-2H-3-thia-2,4,5-triaza-phenanthrene 3,3-dioxide], 39.5 µM.
Consider `CN1C(c2ccccc2)c2ccc3cccnc3c2NS1(=O)=O` (stereo not shown) [Example 115, 2-Methyl-1-phenyl-1,4-dihydro-2H-3-thia-2,4,5-triaza-phenanthrene 3,3-dioxide], for which the IC50 stood at 0.87 µM.
To `N#Cc1ccc(S(=O)(=O)Nc2cccc3cccnc23)cn1` [Example 116, 6-Cyano-pyridine-3-sulfonic acid quinolin-8-ylamide] belongs 4.26 µM.
In the case of `Cc1ccc(S(=O)(=O)Nc2cccc3cccnc23)nc1` [Example 227, 5-Methyl-pyridine-2-sulfonic acid quinolin-8-ylamide], the IC50 turned out to be 0.38 µM.
In the case of `Cc1cccc(S(=O)(=O)Nc2cccc3cccnc23)n1` [Example 228, 6-Methyl-pyridine-2-sulfonic acid quinolin-8-ylamide] it was 15.4 µM.
In the case of `O=S(=O)(Nc1cccc2cccnc12)c1cncc(C(F)(F)F)c1` [Example 229, 5-Trifluoromethyl-pyridine-3-sulfonic acid quinolin-8-ylamide] it was 3.98 µM.
Regarding `O=S(=O)(Nc1cccc2cccnc12)c1cnccn1` [Example 230, Pyrazine-2-sulfonic acid quinolin-8-ylamide], the IC50 was 1.91 µM. This IC50 lies about 2.1-fold lower than the previous one.
The compound `O=S(=O)(Nc1cccc2cccnc12)c1nccs1` [Example 231, Thiazole-2-sulfonic acid quinolin-8-ylamide] had an IC50 of 4.58 µM.
In the case of `O=S(=O)(Nc1cc(OC(F)(F)F)cc2cccnc12)c1ccc(C(F)(F)F)nc1` [Example 232, 6-Trifluoromethyl-pyridine-3-sulfonic acid (6-trifluoromethoxy-quinolin-8-yl)-amide] it was 12.5 µM; in that of `O=S(=O)(Nc1ccc(C(F)(F)F)c2cccnc12)c1ccccn1` [Example 234, Pyridine-2-sulfonic acid (5-trifluoromethyl-quinolin-8-yl)-amide], 0.46 µM; in that of `O=S(=O)(Nc1cc(OC(F)(F)F)cc2cccnc12)c1ccccn1` [Example 235, Pyridine-2-sulfonic acid (6-trifluoromethoxy-quinolin-8-yl)-amide], 1.09 µM.
In the case of `O=S(=O)(Nc1cc(F)cc2cccnc12)c1ccccn1` [Example 236, Pyridine-2-sulfonic acid (6-fluoro-quinolin-8-yl)-amide] it was 2.37 µM; in that of `O=S(=O)(Nc1cc(OC(F)(F)F)cc2cccnc12)c1cccnc1` [Example 237, Pyridine-3-sulfonic acid (6-trifluoromethoxy-quinolin-8-yl)-amide], 3.84 µM.
In turn, `N#Cc1ccc(S(=O)(=O)Nc2cc(OC(F)(F)F)cc3cccnc23)cn1` [Example 238, 6-Cyano-pyridine-3-sulfonic acid (6-trifluoromethoxy-quinolin-8-yl)-amide] gave an IC50 of 2.11 µM.
In the case of `N#Cc1ccc(S(=O)(=O)Nc2cc(F)cc3cccnc23)cn1` [Example 239, 6-Cyano-pyridine-3-sulfonic acid (6-fluoro-quinolin-8-yl)-amide] it was 3.75 µM.
To `N#Cc1ccc(S(=O)(=O)Nc2ccc(C(F)(F)F)c3cccnc23)cn1` [Example 240, 6-Cyano-pyridine-3-sulfonic acid (5-trifluoromethyl-quinolin-8-yl)-amide] belongs 2.6 µM; to `O=S1(=O)Nc2c(ccc3c(Cl)ccnc23)-c2ccccc21` [Example 305, 1-Chloro-5H-6-thia-4,5-diaza-chrysene 6,6-dioxide], 12.5 µM.
With `O=S1(=O)Nc2c(cc(F)c3cccnc23)-c2cc(C(F)(F)F)ccc21` [Example 306, 12-Fluoro-9-trifluoromethyl-5H-6-thia-4,5-diaza-chrysene 6,6-dioxide], half-maximal inhibition (IC50) was put at 4.19 µM.
In turn, `COC(=O)c1ccc2c(c1)-c1ccc3cccnc3c1NS2(=O)=O` [Example 307, 6,6-Dioxo-5,6-dihydro-6λ*6*-thia-4,5-diaza-chrysene-9-carboxylic acid methyl ester] gave an IC50 of 4.18 µM.
To `N#Cc1ccc2c(c1)-c1ccc3cccnc3c1NS2(=O)=O` [Example 308, 6,6-Dioxo-5,6-dihydro-6λ*6*-thia-4,5-diaza-chrysene-9-carbonitrile] belongs 2.83 µM.
In the case of `O=S1(=O)Nc2c(cc(C(F)(F)F)c3cccnc23)-c2ccccc21` [Example 311, 12-Trifluoromethyl-5H-6-thia-4,5-diaza-chrysene 6,6-dioxide] it was 14.1 µM; in that of `O=S1(=O)Nc2c(cc(C(F)(F)F)c3cccnc23)-c2cc(Cl)ccc21` [Example 312, 9-Chloro-12-trifluoromethyl-5H-6-thia-4,5-diaza-chrysene 6,6-dioxide], 8.51 µM; in that of `O=S1(=O)Nc2c(ccc3cccnc23)-c2cccnc21` [Example 318, 11H-12-Thia-1,10,11-triaza-chrysene 12,12-dioxide], 6.15 µM.
In the case of `COC(=O)c1ccnc2c3c(ccc12)-c1ccccc1S(=O)(=O)N3` [Example 319, 6,6-Dioxo-5,6-dihydro-6λ*6*-thia-4,5-diaza-chrysene-1-carboxylic acid methyl ester] it was 2.94 µM; in that of `O=S1(=O)Nc2c(c(F)cc3cccnc23)-c2ccccc21` [Example 323, 11-Fluoro-5H-6-thia-4,5-diaza-chrysene 6,6-dioxide], 3.57 µM; in that of `O=S1(=O)Nc2c(cc(F)c3cccnc23)-c2ccccc21` [Example 324, 12-Fluoro-5H-6-thia-4,5-diaza-chrysene 6,6-dioxide], 1.39 µM.
Consider `O=S1(=O)Nc2c(ccc3cccnc23)-c2cc(Cl)ccc21` [Example 325, 9-Chloro-5H-6-thia-4,5-diaza-chrysene 6,6-dioxide], for which the IC50 was 0.77 µM.
`COc1ccc2c(c1)S(=O)(=O)Nc1c-2ccc2cccnc12` [Example 326, 8-Methoxy-5H-6-thia-4,5-diaza-chrysene 6,6-dioxide] showed an IC50 of 2.11 µM.
In the case of `Cc1ccc2c(c1)-c1ccc3cccnc3c1NS2(=O)=O` [Example 327, 9-Methyl-5H-6-thia-4,5-diaza-chrysene 6,6-dioxide] it was 3.2 µM.
Regarding `O=S1(=O)Nc2c(cc(Cl)c3cccnc23)-c2ccccc21` [Example 328, 12-Chloro-5H-6-thia-4,5-diaza-chrysene 6,6-dioxide], it took 0.32 µM to reach half-maximal inhibition (IC50).
In the case of `Cc1ccc2c(c1)S(=O)(=O)Nc1c-2ccc2cccnc12` [Example 329, 8-Methyl-5H-6-thia-4,5-diaza-chrysene 6,6-dioxide] it was 0.36 µM.
In the case of `O=S1(=O)Nc2c(ccc3cccnc23)-c2ccc(F)cc21` [Example 330, 8-Fluoro-5H-6-thia-4,5-diaza-chrysene 6,6-dioxide] it was 1.62 µM.
